Reference: patent US7582068B2, “Occlusion resistant hydrocephalic shunt” (Medtronic, Inc., priority 2004, dated 2009)

Tested on: tissue in-growth of the catheter lumen
Experiment: Tissue in-growth scoring of catheters explanted from rats after 3 months (SEM)
Assay type: in vivo, rat
Settings: peritoneal and ventricular catheters in rats, MPA compared to drug-free control, dual drug compared to single drug loading
Method: Micophenolic acid (MPA) was loaded into ventricular and peritoneal catheter, design of which is described in the example 16. MPA was loaded into ventricular catheter by solvent impregnation using 50 mg/ml MPA in THF followed by drug loading into a silicone plug with 10 wt % drug concentration. Peritoneal sample was loaded by solvent impregnation using 12.5 mg/ml MPA solution in THF followed by drug loading into a plug using 2.5 mg/ml MPA in silicone rubber. Samples were implanted into rat such that the ventricular sample was placed in a lateral ventricle of the rat and the peritoneal samples was implanted into rat peritoneal cavity. In total 6 ventricular and 6 peritoneal samples were implanted into 6 rats. 12 drug-free catheters of the same configuration were implanted in the other 6 rats as controls. After 3 months samples were explanted and the tissue in-growth was scored between 1 and 5 on a basis of SEM photographs of longitudinally split catheters. […]
Ventricular and peritoneal samples were loaded with RAPA and MPA according to the following procedure: catheters were impregnated with 50 mg/ml of MPA solution in THF followed by plugging with 5 wt % RAPA in silicone Samples were implanted in rats and analyzed as described in the Example 17.

## COc1c(C)c2c(c(O)c1C/C=C(\C)CCC(=O)O)C(=O)OC2 [MPA, Mycophenolic acid]
  Effect on tissue proliferation (in words): decrease of tissue proliferation
